Source: patent US20140243411A1 (priority 2011, published 2014)

Columns and labels:
[1] = In vitro percutaneous permeation of C2E5 nonaqueous gel spiked with [14C]-C2E5; assay type: in vitro ADME, Sprague-Dawley (SD) rat
Procedure: An in vitro permeation study was carried out using a vertical diffusion cell system equipped with an autosampler (Hanson Microette Autosampling System, Hanson Research Co., USA). The area for permeation was 1.767 cm^2, and the receiver compartment volume was 7 mL. The experiments were run at 32° C. and stirred magnetically at 400 rpm. The receiver medium was 0.1M phosphate buffer (pH 7.4). SD rat skin samples were prepared by harvesting dorsal skin samples from freshly euthanized (<1 h) SD rats (n=9, 200-300 g). The skin was shaved and the subcutaneous fat tissue was carefully peeled from the dermis layer to remove potential interference due to high levels of esterase activity in subcutaneous tissue. The processed skin samples were inspected visually for membrane integrity. The qualified skin samples were stored at −20° C. until use. The SD rat skin samples were first allowed to thaw for at least 1 h in the receiver medium, and then mounted and clamped between the receiver and donor compartments of the diffusion cells. […] ([^14C]-C2E5; 50 mCi/mmol) labeled at carbon-1 (carbonyl carbon) was purchased from American Radiolabeled Chemicals, Inc., St. Louis, Mo.).
Collected samples were dispensed into Ultima Gold™ scintillation cocktail at a ratio of 100 μL:10 mL and assayed directly for radioactivity by liquid scintillation counting (LSC) using a Packard TriCarb 3100TR (PerkinElmer Life and Analytical Sciences) with automatic quench correction. Samples were counted for 10 min or until a 5% confidence level was achieved. The samples were subsequently assayed for intact C2E5 and its metabolites using HPLC-FSA. The cumulative releases of C2E5 and its metabolites were plotted as a function of time.
Fick's law (Equation 4) has been used as a simple model to describe the steady-state diffusion of drug through the skin:
where Jss=steady-state flux (mol/hr); D=drug diffusivity (cm^2/hr); h=membrane thickness (cm); Ksc/veh=drug's stratum corneum-vehicle partition coefficient; Cveh=drug concentration (mg/cm^3) in the vehicle; and A=surface area (cm^2). The cumulative amount of C2E5 and its metabolites permeated through the SD rat skin versus time is presented in FIG. 1, The overall concentrations of C2E5 and its metabolites in receiver compartment at different time points were calculated based on Equation 5.
The concentrations of C2E5 and its metabolites in the collected samples from the receiver compartment at different time points were analyzed by HPLC-FSA.

[2] = In vitro C2E5 metabolism studies using SD rat skin S9 fractions; assay type: in vitro ADME
[3] = system: rats contaminated with ^241Am; assay: Radionuclide decorporation efficacy study in rats contaminated with 241Am (Example 10): excretion, tissue content, liver and skeleton burden; assay type: in vivo, SD rats
Procedure: All animal studies were conducted according to a protocol approved by the University of North Carolina at Chapel Hill Institutional Animal Care and Use Committee (IACUC). Ten-week-old adult female SD rats weighing from 200 to 300 g were used in these studies (Charles River Labs, Raleigh, N.C.). Food and water were given ad libitum. The animal room was kept at a controlled temperature (23° C.) and light cycle (light exposure from 8 AM to 8 PM). For the duration of the study, the rats were housed in metabolic cages individually with daily urine and feces collection until euthanasia on Day 7.
To evaluate the efficacy of transdermal delivery of the C2E5 nonaqueous gel, a radionuclide decorporation efficacy study was conducted in rats contaminated with ^241Am. Adult female SD rats were anesthetized with 2-3% isoflurane. Dorsal skin between the cervical vertebrae and anterior thoracic vertebrae was clipped with caution before all animals were contaminated with [^241Am]-Americium nitrate solution (250 nCi, 0.1 mL) via an i.m. injection in anterior thigh muscle. The C2E5 nonaqueous gel was applied at dose of 1000 mg/kg using a cotton swap to a 6 cm^2 (2 cm×3 cm) area of the clipped dorsal region immediately after contamination. A jacket with plastic dorsal insert (VWR International) was placed on the rat to protect the gel application region. The mass of C2E5 gel applied was recorded for each animal to permit the actual dose determination. The animals were housed in metabolic cages individually after C2E5 treatment and were euthanized 7 days after contamination. Positive and negative controls included animals administered Ca-DTPA intravenously and animals without any treatment. The animals were observed once daily and their body weights recorded at pre-dose and prior to necropsy, Urine and feces were collected daily until euthanasia, when the liver, kidneys, both femurs and the muscle tissue from around the injection site were also collected. Cage washes were collected at the end of each experiment. As ˜35% of the decay of ^241Am is associated with photon emissions of 59.7 keV, ^241Am present in samples was quantified using a gamma counter (2470 Wizard 2, Perkin Elmer). The samples were counted for one minute using a 40-80 keV energy detection window and were background-corrected. Additionally, ^241Am activity was quantified in 2×0.1 mL aliquots of the dosing solution. For all samples, ^241Am content was expressed as a percentage of the initial dose.
where % ID represents the percent of injected dose. Where data for both femurs were available, an estimate of the total skeletal burden was made using the method of Volf with modification in which the counts in the contra-lateral femur were multiplied by 19 and added to the counts in the ipsi-lateral femur. The modification for the literature method was due to higher ^241Am content in ipsi-lateral femur as a result of i.m. injection in anterior thigh muscle.
Statistically significant differences among groups were determined using one-way ANOVA with Tukey's post hoc comparison. All measurements are expressed as mean±standard deviation (S.D.). The level of significance was set at p<0.05.

[4] = pH 7.4; Sueda et al.; cited from earlier work
[5] = rats, seven days following a single dose, Ca-DTPA 14 mg/kg i.v., C2E5 1000 mg/kg transdermal
[6] = seven days after single dose, Ca-DTPA 14 mg/kg i.v., C2E5 1000 mg/kg transdermal gel
[7] = seven days, 1000 mg/kg transdermal

## CCOC(=O)CN(CCN(CC(=O)OCC)CC(=O)OCC)CCN(CC(=O)OCC)CC(=O)OCC [Formulation C2E5, penta-substituted ethyl ester of DTPA]
[1]; at 8 h
  cumulative amount of C2E5 and its metabolites permeated through the rat skin: 1.98 μmol/cm^2
[1]; at 8 h, gel 6% EC10, 25% C2E5, 69% MIGLYOL 840
  initially applied C2E5 dose permeated through the rat skin (C2E5 and its metabolites): ~10%
[1]; at 23 h
  cumulative amount of C2E5 and its metabolites permeated through the rat skin: 3.55 μmol/cm^2
[1]; gel 6% EC10, 25% C2E5, 69% MIGLYOL 840
  diffusional lag time through SD rat skin: 0.33 h
[1]; steady-state between 2 h and 7 h, gel 6% EC10, 25% C2E5, 69% MIGLYOL 840
  Jss per unit area through SD rat skin: 0.276 μmol/cm^2/h
[2]
  conversion of C2E5 to DTPA: only minimally observed
[3]; contra-lateral femur × 19 + ipsi-lateral femur, rats, seven days following a single dose, Ca-DTPA 14 mg/kg i.v. (n = 3), C2E5 1000 mg/kg transdermal
  Skeleton Burden (% of ID): 9.6 ± 0.9 % of ID
[3]; rats, seven days following a single dose, Ca-DTPA 14 mg/kg i.v. (one animal excluded), C2E5 1000 mg/kg transdermal
  Ipsi-lateral femur content of 241Am: 0.54 ± 0.10 % of ID of ^241Am
[3]; [5]
  % of Reduction over control (liver burden): 49.1%
  % of Reduction over control (skeleton burden): 41.1%
  Contra-lateral femur content of 241Am: 0.48 ± 0.05 % of ID of ^241Am
  Kidney content of 241Am: 0.63 ± 0.07 % of ID of ^241Am
  Liver Burden (% of ID): 8.4 ± 2.0 % of ID
  Liver content of 241Am: 8.4 ± 2.0 % of ID of ^241Am
  Muscle-contra content of 241Am: 0.0078 ± 0.0017 % of ID of ^241Am per gram of muscle-contra
  Muscle-ipsi content of 241Am: 44.3 ± 2.0 % of ID of ^241Am
  Pelt at injection site content of 241Am: 0.84 ± 0.66 % of ID of ^241Am
  Total decorporation (% of ID of 241Am): 26.2 ± 2.7 % of ID of ^241Am
[3]; seven days after single dose, Ca-DTPA 14 mg/kg i.v., C2E5 1000 mg/kg transdermal
  reduction of liver burden of ^241Am versus control group: 49.1%
[3]; [6]
  % of Enhanced decorporation over control: 279.9%
  Cumulative excretion of ^241Am In feces: 7.8 ± 1.2 % of ID
  Cumulative excretion of ^241Am In urine: 18.4 ± 1.8 % of ID
  Cumulative excretion of ^241Am Total: 26.2 ± 2.7 % of ID
[3]; [7]
  ^241Am burden in the ipsi-lateral femur versus no-treatment control: statistically significant reduction
  skeleton burden of ^241Am versus control group: statistically significant reduction
[4]
  solubility of C2E5: 2200 µg/mL
